Laboratory results from patent publication US7741479B2, “Urea inhibitors of MAP kinases” (Locus Pharmaceuticals, Inc., priority 2004, dated 2010).

Target: T1, p38 (Homo sapiens, UniProt Q16539)
T1 construct: made in house
Assay: Protein Kinase Assay (33P incorporation from γ-[33P]ATP into GST-ATF-2 substrate)
Format: biochemical
Settings: compound at 3 μM; read-out: Protein Kinase (% Inhibition at 3 μM)
Method: Human non-activated p38 kinase (MW=43 kDa) was purified according to the protocol described herein. Chemicals were purchased from Calbiochem. Fluorescence characterizations were conducted using a Cary Eclipse (Varian Analytical Instruments, Walnut Creek, Calif.). Research-grade CM5 sensor chips and coupling reagents (N-ethyl-N′-dimethylaminopropylcarbodiimide (EDC) N-hydroxysuccinimide (NHS), and 1 M ethanolamine HCl, pH 8.5) were purchased from Biacore AB (Uppsala, Sweden). The biosensor analyses were conducted using a Biacore 3000 SPR instrument. The kinetic analyses were carried on a Molecular Devices spectrophotometer (Molecular Devices Corporation, CA, USA).
Protein Kinase Assay. The protein kinase activity of p38 was determined by measuring the incorporation of ^33P from γ-[^33P]ATP into the GST-ATF-2 substrate, amino acids 19-96 (Upstate, NY USA). […] Compounds were preincubated with 10 nM p38 for 20 min at 30° C.; the reactions were initiated by the addition of GST-ATF2 and ATP and incubated for 70 min at 30° C. before being stopped by the addition of 10 μL of 600 mM phosphoric acid. The phosphorylated substrate was captured on phosphocellulose 96-well plate (Millipore MAPHNOB 10), washed with 100 mM phosphoric acid, and counted in a BeckmenCoulter LS6500 liquid scintillation counter.

T1 sequence (Q16539 whole entry): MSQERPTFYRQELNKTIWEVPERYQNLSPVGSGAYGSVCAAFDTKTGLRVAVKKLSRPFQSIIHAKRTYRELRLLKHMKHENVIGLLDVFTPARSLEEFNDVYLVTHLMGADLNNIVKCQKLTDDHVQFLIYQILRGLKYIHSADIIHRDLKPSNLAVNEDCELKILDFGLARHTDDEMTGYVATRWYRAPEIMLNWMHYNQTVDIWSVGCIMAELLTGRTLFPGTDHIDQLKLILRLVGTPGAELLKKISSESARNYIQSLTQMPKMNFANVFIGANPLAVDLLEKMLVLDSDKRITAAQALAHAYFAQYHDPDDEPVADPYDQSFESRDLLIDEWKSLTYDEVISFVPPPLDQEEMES

inhibition at 3 µM [%] | SMILES
0 to 25 | Cn1ccc(NC(=O)Nc2sc(C(C)(C)C)cc2C(=O)N2CCS(=O)(=O)CC2)n1 [Example 69, 1-[5-tert-butyl-3-(1,1-dioxo-1λ^6-thiomorpholine-4-carbonyl)thiophen-2-yl]-3-(1-methyl-1H-pyrazol-3-yl)urea]
26 to 50 | Cc1cc(NC(=O)Nc2sc(C(C)(C)C)cc2C(=O)N2CCS(=O)(=O)CC2)cc(C)n1 [Example 70, 1-[5-tert-butyl-3-(1,1-dioxo-1λ^6-thiomorpholine-4-carbonyl)thiophen-2-yl]-3-(2,6-dimethylpyridin-4-yl)urea]
76 to 100 | CC(C)(C)c1cc(C(=O)N2CCS(=O)(=O)CC2)c(NC(=O)Nc2ccc3ocnc3c2)s1 [Example 71, 1-Benzoxazol-5-yl-3-[5-tert-butyl-3-(1,1-dioxo-1λ^6-thiomorpholine-4-carbonyl)thiophen-2-yl]urea]
76 to 100 | CC(C)(C)c1cc(C(=O)N2CCS(=O)(=O)CC2)c(NC(=O)Nc2ccc3ncoc3c2)s1 [Example 72, 1-Benzoxazol-6-yl-3-[5-tert-butyl-3-(1,1-dioxo-1λ^6-thiomorpholine-4-carbonyl)thiophen-2-yl]urea]
76 to 100 | CC(C)(C)c1cc(C(=O)N2CCNC(=O)CC2)c(NC(=O)Nc2ccc3c(c2)OCO3)s1 [Example 73, 1-Benzo[1,3]dioxol-5-yl-3-[5-tert-butyl-3-(5-oxo-[1,4]diazepane-1-carbonyl)-thiophen-2-yl]urea]
76 to 100 | CC(C)(C)c1cc(C(=O)N2CCNC(=O)CC2)c(NC(=O)Nc2ccc3c(c2)OC(F)(F)O3)s1 [Example 74, 1-[5-tert-butyl-3-(5-oxo-[1,4]diazepane-1-carbonyl)-thiophen-2-yl]-3-(2,2-difluoro-benzo[1,3]dioxol-5-yl)urea]
76 to 100 | CC(C)(C)c1cc(C(=O)Nc2cccnc2)c(NC(=O)Nc2ccc(Cl)cc2)s1 [Example 75, 1-(3-(Pyridin-3-ylcarbamoyl)-5-tert-butylthiophen-2-yl)-3-(4-chlorophenyl)urea]
76 to 100 | CC(C)(C)c1cc(C(=O)N2CCS(=O)(=O)CC2)c(NC(=O)Nc2ccc(C#N)cc2Cl)s1 [Example 76, 1-[5-tert-butyl-3-(1,1-dioxo-1λ^6-thiomorpholine-4-carbonyl)thiophen-2-yl]-3-(2-chloro-4-cyanophenyl)urea]
26 to 50 | CC(C)(C)c1cc(C(=O)N2CCS(=O)(=O)CC2)c(NC(=O)NC2(c3ccccc3)CC2)s1 [Example 77, 1-[5-tert-butyl-3-(1,1-dioxo-1λ^6-thiomorpholine-4-carbonyl)thiophen-2-yl]-3-(1-phenylcyclopropyl)urea]
76 to 100 | CC1C(=O)NCCN1C(=O)c1cc(C(C)(C)C)sc1NC(=O)Nc1ccc(Cl)cc1 (centres unmarked) [Example 78, 1-[5-tert-butyl-3-(2-methyl-3-oxopiperazine-1-carbonyl)thiophen-2-yl]-3-(4-chlorophenyl)urea]
76 to 100 | CC(C)(C)c1nc(C(=O)N2CCNS(=O)(=O)CC2)c(NC(=O)Nc2cccc3ccccc23)s1 [Example 80, 1-[2-tert-butyl-4-(1,1-dioxo-1λ^6-[1,2,5]thiadiazepane-5-carbonyl)thiazol-5-yl]-3-naphthalen-1-ylurea]
76 to 100 | CN(CCS(C)(=O)=O)C(=O)c1cc(C(C)(C)C)sc1NC(=O)Nc1cccc2ccccc12 [Example 82, 1-(3-(N-methyl-N-(2-(methylsulfonyl)ethyl)carbamoyl)-5-tert-butylthiophen-2-yl)-3-(naphthalen-1-yl)urea]
76 to 100 | CC(C)(C)c1nc(C(=O)N2CCNC(=O)C2)c(NC(=O)Nc2cccc3ccccc23)s1 [Example 83, 1-[2-tert-butyl-4-(3-oxopiperazine-1-carbonyl)thiazol-5-yl]-3-naphthalen-1-ylurea]
76 to 100 | CC(C)(C)c1cc(C(=O)N2CCS(=O)(=O)CC2)c(NC(=O)Nc2ccc(C#N)cc2C(F)(F)F)s1 [Example 84, 1-[5-tert-butyl-3-(1,1-dioxo-1λ^6-thiomorpholine-4-carbonyl)thiophen-2-yl]-3-(4-cyano-2-trifluoromethylphenyl)urea]
26 to 50 | CC(C)(C)c1cc(C(=O)N2CCS(=O)(=O)CC2)c(NC(=O)Nc2cnc(O)c3ccccc23)s1 [Example 85, 1-[5-tert-butyl-3-(1,1-dioxo-1λ^6-thiomorpholine-4-carbonyl)thiophen-2-yl]-3-(1-hydroxyisoquinolin-4-yl)urea]
76 to 100 | CC(C)(C)c1cc(C(=O)N[C@H]2CC(=O)NC2=O)c(NC(=O)Nc2cccc3ccccc23)s1 [Example 86]
76 to 100 | CC1C(=O)NCCN1C(=O)c1cc(C(C)(C)C)sc1NC(=O)Nc1cccc2ccccc12 (centres unmarked) [Example 87, 1-[5-tert-butyl-3-(2-methyl-3-oxopiperazine-1-carbonyl)thiophen-2-yl]-3-naphthalen-1-ylurea]
76 to 100 | COC(=O)CC1C(=O)NCCN1C(=O)c1cc(C(C)(C)C)sc1NC(=O)Nc1cccc2ccccc12 (centres unmarked) [Example 88, {1-[5-tert-butyl-2-(3-naphthalen-1-yl-ureido)thiophene-3-carbonyl]-3-oxo-piperazin-2-yl}-acetic acid methyl ester]
76 to 100 | CC(C)(C)c1cc(C(=O)N2CCNC(=O)CC2)c(NC(=O)Nc2ccc(C#N)cc2C(F)(F)F)s1 [Example 89, 1-[5-tert-butyl-3-(5-oxo-[1,4]diazepane-1-carbonyl)thiophen-2-yl]-3-(4-cyano-2-trifluoromethylphenyl)urea]
76 to 100 | CC(C)(C)c1cc(C(=O)N2CCNC(=O)CC2)c(NC(=O)Nc2ccc(C#N)cc2Cl)s1 [Example 90, 1-[5-tert-Butyl-3-(5-oxo-[1,4]diazepane-1-carbonyl)thiophen-2-yl]-3-(2-chloro-4-cyanophenyl)urea]
76 to 100 | CC(C)(C)c1cc(C(=O)N2CCNS(=O)(=O)CC2)c(NC(=O)Nc2ccc(C#N)cc2Cl)s1 [Example 92, 1-[5-tert-Butyl-3-(1,1-dioxo-1λ^6-[1,2,5]thiadiazepane-5-carbonyl)thiophen-2-yl]-3-(4-cyano-2-chlorophenyl)urea]
76 to 100 | CC(C)(C)c1cc(C(=O)N2CCNS(=O)(=O)CC2)c(NC(=O)Nc2ccc3c(c2)OCO3)s1 [Example 93, 1-Benzo[1,3]dioxol-5-yl-3-[5-tert-butyl-3-(1,1-dioxo-1λ^6-[1,2,5]thiadiazepane-5-carbonyl)thiophen-2-yl]urea]
76 to 100 | CC(C)(C)c1cc(C(=O)N2CCNS(=O)(=O)CC2)c(NC(=O)Nc2ccc3c(c2)OC(F)(F)O3)s1 [Example 94, 1-[5-tert-Butyl-3-(1,1-dioxo-1λ^6-[1,2,5]thiadiazepane-5-carbonyl)thiophen-2-yl]-3-(2,2-difluorobenzo[1,3]dioxol-5-yl)urea]
76 to 100 | COc1ccc(NC(=O)Nc2sc(C(C)(C)C)cc2C(=O)N2CCNS(=O)(=O)CC2)cc1Cl [Example 95, 1-[5-tert-Butyl-3-(1,1-dioxo-1λ^6-[1,2,5]thiadiazepane-5-carbonyl)thiophen-2-yl]-3-(3-chloro-4-methoxyphenyl)urea]
76 to 100 | CC(C)(C)c1cc(C(=O)N2CCNS(=O)(=O)CC2)c(NC(=O)Nc2ccc(Cl)c(Cl)c2)s1 [Example 96, 1-[5-tert-Butyl-3-(1,1-dioxo-1λ^6-[1,2,5]thiadiazepane-5-carbonyl)thiophen-2-yl]-3-(3,4-dichlorophenyl)urea]

Same assay, conditions: same procedure at 0.5 μM

inhibition at 0.5 µM [%] | SMILES
76 to 100 | CC(C)(C)c1cc(C(=O)NCc2cccnc2)c(NC(=O)Nc2cccc(Cl)c2Cl)s1 [Example 130, 5-tert-butyl-2-[3-(2,3-dichlorophenyl)ureido]thiophene-3-carboxylic acid (pyridin-3-ylmethyl)amide]
76 to 100 | CC(C)(C)c1cc(C(=O)NCc2cccnc2)c(NC(=O)Nc2cccc3ccccc23)s1 [Example 131, 5-tert-Butyl-2-(3-naphthalen-1-yl-ureido)thiophene-3-carboxylic acid (pyridin-3-ylmethyl)amide]
76 to 100 | CC(C)(C)c1cc(C(=O)NCc2cccnc2)c(NC(=O)Nc2ccc3ccccc3c2)s1 [Example 132, 5-tert-Butyl-2-(3-naphthalen-2-yl-ureido)thiophene-3-carboxylic acid (pyridin-3-ylmethyl)amide]
76 to 100 | CC(C)(C)c1cc(C(=O)Nc2ccc3nn[nH]c3c2)c(NC(=O)Nc2cccc(Cl)c2Cl)s1 [Example 133, 5-tert-Butyl-2-[3-(2,3-dichlorophenyl)ureido]thiophene-3-carboxylic acid (3H-benzotriazol-5-yl)amide]
76 to 100 | CCC1C(=O)NCCN1C(=O)c1cc(C(C)(C)C)sc1NC(=O)Nc1cccc(Cl)c1Cl (centres unmarked) [Example 134, 1-[5-tert-Butyl-3-(2-ethyl-3-oxopiperazine-1-carbonyl)thiophen-2-yl]-3-(2,3-dichlorophenyl)urea]
76 to 100 | C[C@H]1C(=O)NCCN1C(=O)c1cc(C(C)(C)C)sc1NC(=O)Nc1cccc(Cl)c1Cl [Example 135, 1-[5-tert-Butyl-3-(2-methyl-3-oxopiperazine-1-carbonyl)thiophen-2-yl]-3-(2,3-dichlorophenyl)urea]

Same assay, conditions: tested at 3 μM according to the procedure described above

protein kinase inhibition | SMILES
0-25% | CC(C)(C)c1cc(C(=O)N2CCNC(=O)CC2)c(NC(=O)NC2CCNCC2)s1 [Example 120, 1-[5-tert-Butyl-3-(5-oxo-[1,4]diazepane-1-carbonyl)thiophen-2-yl]-3-piperidin-4-ylurea]
